Laboratory results published in PubChem BioAssay AID2060503 (Molecular Pharmacology Branch, DTP, NCI, 2025).

Tested on: 817829-284-R-J1-PDC complex spheroids, viability
Assay: Anticancer human tumor 817829-284-R-J1-PDC patient-derived colon adenocarcinoma cell line growth inhibition [GQUAD]
Settings: for IC50: curve of first compound; for viability, T/C: stronger effect = lower value; active = viability on the fitted dose curve at most 10% of control; inactive = the rest
Summary of the method: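 Viability of tumor cells grown as complex spheroids with endothelial and stromal cells, exposed to drug combinations. Top concentration at or near clinical Cmax (else 10 microM), diluted in half-log increments.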

[1] = second compound 0.0316 µM, first compound 0.0316 µM
[2] = second compound 0.0316 µM, first compound 0.1 µM
[3] = second compound 0.0316 µM, first compound 0.316 µM
[4] = second compound 0.0316 µM, first compound 1 µM
[5] = second compound 0.0316 µM, first compound 3.16 µM
[6] = second compound 0.0316 µM, first compound 10 µM
[7] = second compound 0.1 µM, first compound 0.0316 µM
[8] = second compound 0.1 µM, first compound 0.1 µM
[9] = second compound 0.1 µM, first compound 0.316 µM
[10] = second compound 0.1 µM, first compound 1 µM
[11] = second compound 0.1 µM, first compound 3.16 µM
[12] = second compound 0.1 µM, first compound 10 µM
[13] = second compound 0.316 µM, first compound 0.0316 µM
[14] = second compound 0.316 µM, first compound 0.1 µM
[15] = second compound 0.316 µM, first compound 0.316 µM
[16] = second compound 0.316 µM, first compound 1 µM
[17] = second compound 0.316 µM, first compound 3.16 µM
[18] = second compound 0.316 µM, first compound 10 µM
[19] = second compound 1 µM, first compound 0.0316 µM
[20] = second compound 1 µM, first compound 0.1 µM
[21] = second compound 1 µM, first compound 0.316 µM
[22] = second compound 1 µM, first compound 1 µM
[23] = second compound 1 µM, first compound 3.16 µM
[24] = second compound 1 µM, first compound 10 µM
[25] = second compound 3.16 µM, first compound 0.0316 µM
[26] = second compound 3.16 µM, first compound 0.1 µM
[27] = second compound 3.16 µM, first compound 0.316 µM
[28] = second compound 3.16 µM, first compound 1 µM
[29] = second compound 3.16 µM, first compound 3.16 µM
[30] = second compound 3.16 µM, first compound 10 µM
[31] = second compound 10 µM, first compound 0.0316 µM
[32] = second compound 10 µM, first compound 0.1 µM
[33] = second compound 10 µM, first compound 0.316 µM
[34] = second compound 10 µM, first compound 1 µM
[35] = second compound 10 µM, first compound 3.16 µM
[36] = second compound 10 µM, first compound 10 µM
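Also: spheroids exposed to agents for 7 days before readout.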
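For viability, T/C in this document: percent viability relative to DMSO vehicle control taken as 100%.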

CCCS(=O)(=O)Nc1ccc(F)c(C(=O)c2c[nH]c3ncc(-c4ccc(Cl)cc4)cc23)c1F + CN(C)c1ccc(Nc2c3ccc(NC(=O)CCN4CCCC4)cc3nc3cc(NC(=O)CCN4CCCC4)ccc23)cc1
active: viability, T/C [36] 7.36%
5.32 µM: IC50 (second compound 3.16 µM)
5.88 µM: IC50 (second compound 0.316 µM)
5.75 µM: IC50 (second compound 0.0316 µM)
5.68 µM: IC50 (second compound 1 µM)
5.66 µM: IC50 (second compound 0.1 µM)
1.47 µM: IC50 (second compound 10 µM)
inactive: viability, T/C [1] 113% | viability, T/C [2] 112% | viability, T/C [3] 107% | viability, T/C [4] 98.5% | viability, T/C [5] 80.8% | viability, T/C [6] 22.4% | viability, T/C [7] 98.9% | viability, T/C [8] 116% | viability, T/C [9] 100% | viability, T/C [10] 102% | viability, T/C [11] 79.1% | viability, T/C [12] 21.5% | viability, T/C [13] 107% | viability, T/C [14] 115% | viability, T/C [15] 97.7% | viability, T/C [16] 111% | viability, T/C [17] 84% | viability, T/C [18] 20.9% | viability, T/C [19] 109% | viability, T/C [20] 110% | viability, T/C [21] 104% | viability, T/C [22] 98% | viability, T/C [23] 79.8% | viability, T/C [24] 22.2% | viability, T/C [25] 106% | viability, T/C [26] 112% | viability, T/C [27] 95.6% | viability, T/C [28] 96.1% | viability, T/C [29] 76.3% | viability, T/C [30] 19.1% | viability, T/C [31] 94.4% | viability, T/C [32] 87.3% | viability, T/C [33] 63.2% | viability, T/C [34] 66.6% | viability, T/C [35] 32.8%

CC1COCCN1c1cc(C2(O)CC3CCC(C2)O3)c2cnn(-c3ccn[nH]3)c2n1 (stereo not drawn) + Cc1cnc(CNC(=O)c2c(=O)c3ccc(N4CCCN(C)CC4)nc3n3c2sc2ccccc23)cn1
active: viability, T/C [2] 9.62% | viability, T/C [3] 7.9% | viability, T/C [4] 5.56% | viability, T/C [5] 5.19% | viability, T/C [6] 3.22% | viability, T/C [9] 8.05% | viability, T/C [10] 5.97% | viability, T/C [11] 4.94% | viability, T/C [12] 2.88% | viability, T/C [14] 9.42% | viability, T/C [15] 6.75% | viability, T/C [16] 6.83% | viability, T/C [17] 4.09% | viability, T/C [18] 2.08% | viability, T/C [20] 11.2% | viability, T/C [21] 6.62% | viability, T/C [22] 5.07% | viability, T/C [23] 3.93% | viability, T/C [24] 1.59% | viability, T/C [26] 9.23% | viability, T/C [27] 6.99% | viability, T/C [28] 3.25% | viability, T/C [29] 0.81% | viability, T/C [30] 0.2% | viability, T/C [31] 0.05% | viability, T/C [32] 0.1% | viability, T/C [33] 0.14% | viability, T/C [34] 0.08% | viability, T/C [35] 0.14% | viability, T/C [36] 0.12%
< 0.0316 µM: IC50 (second compound 0.0316 µM) | IC50 (second compound 0.1 µM) | IC50 (second compound 0.316 µM) | IC50 (second compound 1 µM) | IC50 (second compound 3.16 µM) | IC50 (second compound 10 µM)
inactive: viability, T/C [1] 12.8% | viability, T/C [7] 12.9% | viability, T/C [8] 10.7% | viability, T/C [13] 13.1% | viability, T/C [19] 12.2% | viability, T/C [25] 12.6%

CC(C)(O)C1CCC(Nc2ccc3ncc(-c4cccc(C(F)(F)F)c4)n3n2)CC1 (stereo not drawn) + Cc1cnc(CNC(=O)c2c(=O)c3ccc(N4CCCN(C)CC4)nc3n3c2sc2ccccc23)cn1
< 0.0316 µM: IC50 (second compound 0.1 µM) | IC50 (second compound 0.316 µM) | IC50 (second compound 1 µM) | IC50 (second compound 3.16 µM) | IC50 (second compound 10 µM)
0.527 µM: IC50 (second compound 0.0316 µM)
active: viability, T/C [5] 5.43% | viability, T/C [6] 13.3% | viability, T/C [12] 8.8% | viability, T/C [17] 1.35% | viability, T/C [18] 3.38% | viability, T/C [23] 0.04% | viability, T/C [24] 0.05% | viability, T/C [28] 9.34% | viability, T/C [29] 0.09% | viability, T/C [30] 0.09% | viability, T/C [31] 0.11% | viability, T/C [32] 0.13% | viability, T/C [33] 0.17% | viability, T/C [34] 0.12% | viability, T/C [35] 0.19% | viability, T/C [36] 0.18%
inactive: viability, T/C [1] 63.1% | viability, T/C [2] 53.3% | viability, T/C [3] 76.1% | viability, T/C [4] 32.3% | viability, T/C [7] 31.4% | viability, T/C [8] 36.8% | viability, T/C [9] 26% | viability, T/C [10] 20.4% | viability, T/C [11] 7.21% | viability, T/C [13] 22.4% | viability, T/C [14] 25.3% | viability, T/C [15] 25.3% | viability, T/C [16] 16.4% | viability, T/C [19] 16.6% | viability, T/C [20] 21.5% | viability, T/C [21] 21% | viability, T/C [22] 15.8% | viability, T/C [25] 20.8% | viability, T/C [26] 18% | viability, T/C [27] 19.1%

C=CCn1c(=O)c2cnc(Nc3ccc(N4CCN(C)CC4)cc3)nc2n1-c1cccc(C(C)(C)O)n1 + Cc1[nH]c2ccc(F)cc2c1-c1nc2c3cccnc3c3ncccc3c2[nH]1
active: viability, T/C [4] 8.8% | viability, T/C [5] 6.61% | viability, T/C [6] 5.37% | viability, T/C [10] 7.33% | viability, T/C [11] 6.25% | viability, T/C [12] 4.08% | viability, T/C [16] 8.37% | viability, T/C [17] 6.05% | viability, T/C [18] 4.81% | viability, T/C [22] 8.6% | viability, T/C [23] 6.38% | viability, T/C [24] 4.1% | viability, T/C [27] 8.17% | viability, T/C [28] 5.38% | viability, T/C [29] 4.83% | viability, T/C [30] 4.49% | viability, T/C [33] 6.57% | viability, T/C [34] 4.68% | viability, T/C [35] 5.07% | viability, T/C [36] 4.08%
0.24 µM: IC50 (second compound 0.1 µM)
0.22 µM: IC50 (second compound 0.0316 µM)
0.221 µM: IC50 (second compound 1 µM)
0.259 µM: IC50 (second compound 0.316 µM)
< 0.0316 µM: IC50 (second compound 3.16 µM) | IC50 (second compound 10 µM)
inactive: viability, T/C [1] 101% | viability, T/C [2] 92.9% | viability, T/C [3] 30.2% | viability, T/C [7] 82.1% | viability, T/C [8] 111% | viability, T/C [9] 35.2% | viability, T/C [13] 97.2% | viability, T/C [14] 109% | viability, T/C [15] 38.9% | viability, T/C [19] 104% | viability, T/C [20] 103% | viability, T/C [21] 26.2% | viability, T/C [25] 46.1% | viability, T/C [26] 30.2% | viability, T/C [31] 28.6% | viability, T/C [32] 14.8%
